In ChEMBL document CHEMBL5029145, “Discovery of AZD8154, a Dual PI3Kγδ Inhibitor for the Treatment of Asthma” (J Med Chem, 2021):
≈ marks a conversion by molar mass, not a printed value.

Experiments:
[1] = biological target: Phosphatidylinositol 4,5-bisphosphate 3-kinase catalytic subunit alpha isoform (Homo sapiens, UniProt P42336); test: Inhibition of recombinant human PI3Kalpha assessed as reduction in ADP production using Dic8-PIP2 as substrate pre-treated for 15 mins followed by substrate addition measured after 60 mins by ADP-glo assay
Chain of Phosphatidylinositol 4,5-bisphosphate 3-kinase catalytic subunit alpha isoform (P42336 whole entry, canonical isoform): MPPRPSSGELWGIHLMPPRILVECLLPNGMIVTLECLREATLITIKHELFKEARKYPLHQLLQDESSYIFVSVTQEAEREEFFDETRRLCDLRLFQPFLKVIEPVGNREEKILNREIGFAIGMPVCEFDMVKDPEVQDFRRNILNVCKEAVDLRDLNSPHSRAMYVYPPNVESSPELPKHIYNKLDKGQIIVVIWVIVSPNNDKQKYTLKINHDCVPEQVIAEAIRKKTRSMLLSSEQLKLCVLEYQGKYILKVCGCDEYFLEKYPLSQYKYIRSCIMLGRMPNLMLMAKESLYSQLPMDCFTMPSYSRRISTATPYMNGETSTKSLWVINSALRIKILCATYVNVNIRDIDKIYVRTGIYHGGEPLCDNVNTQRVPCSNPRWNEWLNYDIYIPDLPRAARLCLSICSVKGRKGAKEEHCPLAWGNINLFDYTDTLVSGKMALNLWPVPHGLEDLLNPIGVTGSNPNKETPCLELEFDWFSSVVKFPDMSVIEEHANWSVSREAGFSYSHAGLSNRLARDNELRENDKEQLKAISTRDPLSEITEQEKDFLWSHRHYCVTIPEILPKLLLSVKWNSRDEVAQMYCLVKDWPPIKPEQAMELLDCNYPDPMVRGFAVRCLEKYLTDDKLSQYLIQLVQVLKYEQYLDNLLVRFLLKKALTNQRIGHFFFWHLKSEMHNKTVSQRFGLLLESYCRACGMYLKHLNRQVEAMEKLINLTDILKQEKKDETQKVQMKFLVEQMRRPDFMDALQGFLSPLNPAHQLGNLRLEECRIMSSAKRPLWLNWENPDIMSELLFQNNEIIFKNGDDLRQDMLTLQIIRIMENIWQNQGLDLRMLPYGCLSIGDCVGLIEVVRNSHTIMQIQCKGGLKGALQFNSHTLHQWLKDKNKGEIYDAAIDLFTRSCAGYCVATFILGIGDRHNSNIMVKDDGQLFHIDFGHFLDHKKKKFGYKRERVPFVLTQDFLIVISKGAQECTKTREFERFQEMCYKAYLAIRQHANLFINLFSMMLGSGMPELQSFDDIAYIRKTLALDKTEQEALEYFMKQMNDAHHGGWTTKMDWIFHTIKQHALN

[2] = Permeability in human Caco2 cells; assay type: ADME, cell-based; details: caco-2
[3] = Thermodynamic stability assessed as onset melting temperature; assay type: physicochemical
[4] = biological target: Phosphatidylinositol 4-kinase alpha (Homo sapiens, UniProt P42356); test: Inhibition of PI4KA (unknown origin) assessed as reduction in substrate phosphorylation by FRET Adapta assay
[5] = biological target: Phosphatidylinositol 3-kinase catalytic subunit type 3 (Homo sapiens, UniProt Q8NEB9); test: Inhibition of PIK3C3 (unknown origin) assessed as reduction in substrate phosphorylation by FRET Adapta assay
[6] = Half life in rat plasma at 0.5 mg/kg, iv; assay type: ADME, organism-based
[7] = Distribution coefficient, logD of compound at pH 7.4; assay type: physicochemical; details: octanol/water
[8] = biological target: Phosphatidylinositol 4-kinase beta (Homo sapiens, UniProt Q9UBF8); test: Inhibition of PI4KB (unknown origin) assessed as reduction in substrate phosphorylation by FRET Adapta assay
Chain of Phosphatidylinositol 4-kinase beta (Q9UBF8 whole entry): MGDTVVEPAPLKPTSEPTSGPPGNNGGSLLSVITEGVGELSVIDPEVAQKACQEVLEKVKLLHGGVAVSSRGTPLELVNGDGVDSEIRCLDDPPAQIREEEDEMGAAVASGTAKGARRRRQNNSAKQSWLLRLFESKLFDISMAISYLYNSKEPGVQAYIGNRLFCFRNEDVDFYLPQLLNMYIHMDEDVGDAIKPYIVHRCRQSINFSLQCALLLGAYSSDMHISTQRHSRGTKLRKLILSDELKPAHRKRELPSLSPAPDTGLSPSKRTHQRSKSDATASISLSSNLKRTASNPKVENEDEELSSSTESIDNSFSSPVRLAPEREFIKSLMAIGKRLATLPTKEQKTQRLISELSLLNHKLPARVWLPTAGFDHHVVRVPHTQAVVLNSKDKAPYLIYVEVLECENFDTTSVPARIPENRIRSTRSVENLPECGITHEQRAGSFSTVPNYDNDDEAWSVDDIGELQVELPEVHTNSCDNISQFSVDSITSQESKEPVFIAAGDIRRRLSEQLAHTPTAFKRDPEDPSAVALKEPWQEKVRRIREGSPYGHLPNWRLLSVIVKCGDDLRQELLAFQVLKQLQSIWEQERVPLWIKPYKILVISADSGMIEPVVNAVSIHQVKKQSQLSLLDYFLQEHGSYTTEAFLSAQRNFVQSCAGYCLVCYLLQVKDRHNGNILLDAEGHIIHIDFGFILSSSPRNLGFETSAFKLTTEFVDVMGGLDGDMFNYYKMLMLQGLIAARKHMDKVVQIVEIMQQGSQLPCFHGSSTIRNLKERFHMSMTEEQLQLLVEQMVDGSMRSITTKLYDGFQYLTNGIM

[9] = Clearance in rat at 0.5 mg/kg, iv; assay type: ADME, organism-based; details: in vivo
[10] = Apparent terminal half life in rat administered via inhalation; assay type: ADME; details: in vivo, inhaled or intranasal
[11] = Solubility of compound in at pH 7.4 at 1 mg/ml using crystalline form of sample incubated for 24 hrs by HPLC MS analysis; assay type: physicochemical
[12] = biological target: Phosphatidylinositol 4-phosphate 3-kinase C2 domain-containing subunit alpha (Homo sapiens, UniProt O00443); test: Inhibition of PIK3C2A (unknown origin) assessed as reduction in substrate phosphorylation by FRET Adapta assay
Chain of Phosphatidylinositol 4-phosphate 3-kinase C2 domain-containing subunit alpha (O00443 whole entry, the tested form may be a part): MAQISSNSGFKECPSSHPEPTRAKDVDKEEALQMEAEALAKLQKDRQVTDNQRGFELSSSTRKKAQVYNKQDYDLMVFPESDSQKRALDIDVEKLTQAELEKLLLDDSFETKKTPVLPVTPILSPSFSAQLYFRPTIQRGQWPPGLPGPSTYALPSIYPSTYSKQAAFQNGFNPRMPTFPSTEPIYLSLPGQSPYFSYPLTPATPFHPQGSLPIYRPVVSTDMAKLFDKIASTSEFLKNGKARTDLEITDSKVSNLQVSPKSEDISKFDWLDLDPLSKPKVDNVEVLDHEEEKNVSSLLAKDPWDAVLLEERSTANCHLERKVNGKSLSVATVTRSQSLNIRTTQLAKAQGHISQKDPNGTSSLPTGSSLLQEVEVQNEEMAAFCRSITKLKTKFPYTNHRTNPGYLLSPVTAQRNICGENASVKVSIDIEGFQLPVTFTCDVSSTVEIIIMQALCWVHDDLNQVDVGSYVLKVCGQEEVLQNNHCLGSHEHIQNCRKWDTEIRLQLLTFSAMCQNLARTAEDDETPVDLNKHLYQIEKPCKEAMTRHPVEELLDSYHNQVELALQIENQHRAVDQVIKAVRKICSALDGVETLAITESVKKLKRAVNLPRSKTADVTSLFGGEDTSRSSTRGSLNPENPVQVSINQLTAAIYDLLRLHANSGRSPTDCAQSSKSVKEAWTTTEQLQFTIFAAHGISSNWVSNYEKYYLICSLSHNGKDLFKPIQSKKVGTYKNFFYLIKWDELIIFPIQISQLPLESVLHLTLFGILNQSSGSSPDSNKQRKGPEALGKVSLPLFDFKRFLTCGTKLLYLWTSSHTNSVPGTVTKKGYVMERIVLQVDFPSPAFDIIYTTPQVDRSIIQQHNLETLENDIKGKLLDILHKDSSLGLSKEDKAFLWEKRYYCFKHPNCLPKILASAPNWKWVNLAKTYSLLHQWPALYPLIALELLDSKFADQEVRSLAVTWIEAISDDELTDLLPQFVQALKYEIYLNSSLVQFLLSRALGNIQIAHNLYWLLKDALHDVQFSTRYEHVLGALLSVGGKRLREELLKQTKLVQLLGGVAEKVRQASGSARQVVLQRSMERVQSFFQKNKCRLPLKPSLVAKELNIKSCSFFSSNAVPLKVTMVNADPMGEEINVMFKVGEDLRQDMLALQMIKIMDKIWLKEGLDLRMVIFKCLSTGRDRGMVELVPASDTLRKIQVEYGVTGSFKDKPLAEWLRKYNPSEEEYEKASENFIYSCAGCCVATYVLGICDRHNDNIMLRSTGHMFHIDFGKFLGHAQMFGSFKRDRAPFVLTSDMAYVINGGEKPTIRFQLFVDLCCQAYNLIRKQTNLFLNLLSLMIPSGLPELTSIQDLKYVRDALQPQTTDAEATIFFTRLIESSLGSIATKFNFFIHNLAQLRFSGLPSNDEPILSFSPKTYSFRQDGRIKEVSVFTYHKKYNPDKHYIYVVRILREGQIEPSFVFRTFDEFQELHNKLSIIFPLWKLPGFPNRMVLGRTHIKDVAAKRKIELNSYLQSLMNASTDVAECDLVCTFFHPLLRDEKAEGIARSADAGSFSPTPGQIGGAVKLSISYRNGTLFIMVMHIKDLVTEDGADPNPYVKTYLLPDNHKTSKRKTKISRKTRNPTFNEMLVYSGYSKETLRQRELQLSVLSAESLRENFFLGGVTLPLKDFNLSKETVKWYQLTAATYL

[13] = Volume of distribution at steady state in rat at 0.5 mg/kg, iv; assay type: ADME, organism-based; details: in vivo, read-out: Vdss
[14] = biological target: Phosphatidylinositol 4-phosphate 3-kinase C2 domain-containing subunit beta (Homo sapiens, UniProt O00750); test: Inhibition of PIK3C2B (unknown origin) assessed as reduction in substrate phosphorylation by FRET Adapta assay
[15] = biological target: T1, Phosphatidylinositol 4,5-bisphosphate 3-kinase catalytic subunit delta isoform (Homo sapiens, UniProt O00329); test: Inhibition of PI3Kdelta in anti-IgM-stimulated human JeKo-1 cells assessed as inhibition of AKT phosphorylation at Ser473 residue incubated for 60 mins by TR-FRET assay
T1 sequence (O00329 whole entry): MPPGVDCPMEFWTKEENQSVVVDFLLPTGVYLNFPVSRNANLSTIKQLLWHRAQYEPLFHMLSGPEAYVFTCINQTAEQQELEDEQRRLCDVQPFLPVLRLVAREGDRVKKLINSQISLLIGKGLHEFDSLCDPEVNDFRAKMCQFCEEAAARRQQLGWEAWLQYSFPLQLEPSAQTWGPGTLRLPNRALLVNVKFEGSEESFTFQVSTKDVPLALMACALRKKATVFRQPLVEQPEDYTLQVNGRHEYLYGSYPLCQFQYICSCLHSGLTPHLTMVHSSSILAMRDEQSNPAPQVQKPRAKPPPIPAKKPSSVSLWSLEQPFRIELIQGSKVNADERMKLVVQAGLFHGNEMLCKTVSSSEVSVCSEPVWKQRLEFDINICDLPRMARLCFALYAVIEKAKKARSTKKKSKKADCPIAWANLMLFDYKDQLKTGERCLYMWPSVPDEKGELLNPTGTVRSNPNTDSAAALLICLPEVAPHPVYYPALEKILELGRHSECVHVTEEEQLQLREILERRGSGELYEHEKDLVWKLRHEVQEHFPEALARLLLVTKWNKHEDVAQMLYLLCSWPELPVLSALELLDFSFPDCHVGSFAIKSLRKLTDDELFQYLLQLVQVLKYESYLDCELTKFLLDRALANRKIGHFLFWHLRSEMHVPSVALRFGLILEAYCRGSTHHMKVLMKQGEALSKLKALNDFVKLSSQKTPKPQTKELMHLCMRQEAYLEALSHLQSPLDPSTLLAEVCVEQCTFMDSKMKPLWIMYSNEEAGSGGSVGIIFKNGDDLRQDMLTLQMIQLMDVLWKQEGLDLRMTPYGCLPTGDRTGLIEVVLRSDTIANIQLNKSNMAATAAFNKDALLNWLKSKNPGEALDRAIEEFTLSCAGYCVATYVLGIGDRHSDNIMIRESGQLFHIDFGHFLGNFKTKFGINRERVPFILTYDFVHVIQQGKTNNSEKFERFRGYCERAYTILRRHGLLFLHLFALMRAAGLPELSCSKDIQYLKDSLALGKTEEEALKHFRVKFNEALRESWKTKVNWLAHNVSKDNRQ

[16] = biological target: T1, Phosphatidylinositol 4,5-bisphosphate 3-kinase catalytic subunit delta isoform; test: Inhibition of recombinant human PI3Kdelta assessed as reduction in ADP production using Dic8-PIP2 as substrate pre-treated for 15 mins followed by substrate addition measured after 60 mins by ADP-glo assay
[17] = biological target: Phosphatidylinositol 4,5-bisphosphate 3-kinase catalytic subunit gamma isoform (Homo sapiens, UniProt P48736); test: Inhibition of recombinant human PI3Kgamma assessed as reduction in ADP production using Dic8-PIP2 as substrate pre-treated for 15 mins followed by substrate addition measured after 60 mins by ADP-glo assay
Chain of Phosphatidylinositol 4,5-bisphosphate 3-kinase catalytic subunit gamma isoform (Homo sapiens, UniProt P48736) (P48736 whole entry, canonical isoform): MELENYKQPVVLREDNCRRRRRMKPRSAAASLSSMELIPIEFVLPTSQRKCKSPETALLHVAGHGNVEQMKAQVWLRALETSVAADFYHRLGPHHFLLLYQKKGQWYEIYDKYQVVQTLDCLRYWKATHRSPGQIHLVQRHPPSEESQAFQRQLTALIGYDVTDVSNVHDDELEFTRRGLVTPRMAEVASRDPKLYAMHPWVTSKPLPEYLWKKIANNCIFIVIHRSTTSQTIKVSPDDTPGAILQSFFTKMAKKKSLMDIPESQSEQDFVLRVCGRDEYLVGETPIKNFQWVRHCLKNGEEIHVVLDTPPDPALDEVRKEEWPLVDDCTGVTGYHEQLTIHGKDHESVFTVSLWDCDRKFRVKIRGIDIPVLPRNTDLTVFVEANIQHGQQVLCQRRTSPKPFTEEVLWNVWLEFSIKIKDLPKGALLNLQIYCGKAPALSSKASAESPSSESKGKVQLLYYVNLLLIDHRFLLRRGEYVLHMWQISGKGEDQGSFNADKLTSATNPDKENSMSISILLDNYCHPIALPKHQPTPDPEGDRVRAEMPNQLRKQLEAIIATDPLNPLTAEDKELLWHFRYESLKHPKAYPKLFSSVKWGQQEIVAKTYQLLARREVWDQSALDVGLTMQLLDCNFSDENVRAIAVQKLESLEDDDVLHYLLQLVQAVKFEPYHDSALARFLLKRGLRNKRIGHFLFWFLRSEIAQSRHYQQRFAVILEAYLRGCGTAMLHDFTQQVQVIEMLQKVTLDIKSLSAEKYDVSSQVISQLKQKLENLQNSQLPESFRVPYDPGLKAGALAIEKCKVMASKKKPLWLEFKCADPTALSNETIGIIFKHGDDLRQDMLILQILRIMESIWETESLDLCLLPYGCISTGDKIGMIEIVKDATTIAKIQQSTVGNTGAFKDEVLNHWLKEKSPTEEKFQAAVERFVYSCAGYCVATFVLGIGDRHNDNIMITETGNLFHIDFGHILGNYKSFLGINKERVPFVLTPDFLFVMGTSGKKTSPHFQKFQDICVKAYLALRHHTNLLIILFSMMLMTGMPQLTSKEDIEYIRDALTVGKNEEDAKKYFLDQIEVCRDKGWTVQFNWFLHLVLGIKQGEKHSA

[18] = biological target: Phosphatidylinositol 4,5-bisphosphate 3-kinase catalytic subunit gamma isoform (Mus musculus, UniProt Q9JHG7); test: Inhibition of PI3Kgamma in C5a-stimulated mouse RAW 264 cells assessed as inhibition of AKT phosphorylation at Ser473 residue Pretreated for 15 mins followed by C5a stimulation measured after 3 mins by HTRF assay; assay type: cell-based
[19] = Dissociation constant, pKa of compound; assay type: physicochemical

| SMILES | IC50 [1] | permeability [2] | Tm [3] | IC50 [4] | IC50 [5] | half-life [6] | logD [7] | IC50 [8] | clearance [9] | half-life [10] | solubility thermodynamic at 24 h [11] | IC50 [12] | Vd [13] | IC50 [14] | IC50 [15] | IC50 [16] | IC50 [17] | IC50 [18] | pKa [19] |
| --- | --- | --- | --- | --- | --- | --- | --- | --- | --- | --- | --- | --- | --- | --- | --- | --- | --- | --- | --- |
| Cc1nc(Nc2cccc(N3CCOCC3=O)n2)sc1-c1cc2c(c(S(=O)(=O)NC3COC3)c1)C(=O)N([C@@H](C)C1CC1)C2 | 100 nM | Impermeable | 187 °C | > 10000 nM | 31.6 nM | 0.7 h | 3.5 | 501 nM | 136 mL/min/kg | 4.2 h | 0.337 µM (≈ 0.211 µg/mL) | 3160 nM | 5.4 L/kg |  |  |  |  |  |  |
| Cc1nc2sc1-c1cc3c(c(c1)S(=O)(=O)NCCOCCNC(=O)c1cccc(n1)N2)C(=O)N([C@@H](C)C1CC1)C3 | 39.8 nM | Permeable | 377 °C | > 10000 nM | 25.1 nM | 1.8 h | 3.7 | 20 nM | 110 mL/min/kg | 6.9 h | 0.084 µM (≈ 0.0489 µg/mL) | 316 nM | 8.6 L/kg | 0.794 nM | 2 nM | 0.631 nM | 2.51 nM | 0.794 nM |  |
| Cc1nc2sc1-c1cc3c(c(c1)S(=O)(=O)NCCN(C)CCNC(=O)c1cccc(n1)N2)C(=O)N([C@@H](C)C1CC1)C3 | 39.8 nM | Impermeable | 349 °C |  |  | 1.8 h | 3.9 |  | 83 mL/min/kg | 7.5 h | 1.09 µM (≈ 0.649 µg/mL) |  | 7.3 L/kg |  | 3.16 nM | 0.501 nM | 1.58 nM | 1.58 nM | 6.4 |
